# Measurements published in patent publication US9242966B2, “Phthalazines as potassium ion channel inhibitors” (BRISTOL-MYERS SQUIBB COMPANY, priority 2013, dated 2016).
# Biological target: T1, human KV 1.5 (Homo sapiens, UniProt P22460)
# T1 construct: expressed in transfected cells; host or cells: mammalian L-929 cells (mouse fibroblast line)
# Experiment: Block of IKur current in patch clamped L-929 cells expressing human Kv1.5
# Type: cell-based
# Details: 0.3 μM; patch clamped mammalian L-929 cells stably expressing human Kv1.5 (IKur)
# Excerpt: 1. Synders, D. J.; et al., “A rapidly activating and slowly inactivating potassium channel cloned from human heart: functional analysis after stable mammalian cell culture expression”, J. Gen. Physiol., 101:513-543 (1993). […]
# T1 sequence (P22460 whole entry): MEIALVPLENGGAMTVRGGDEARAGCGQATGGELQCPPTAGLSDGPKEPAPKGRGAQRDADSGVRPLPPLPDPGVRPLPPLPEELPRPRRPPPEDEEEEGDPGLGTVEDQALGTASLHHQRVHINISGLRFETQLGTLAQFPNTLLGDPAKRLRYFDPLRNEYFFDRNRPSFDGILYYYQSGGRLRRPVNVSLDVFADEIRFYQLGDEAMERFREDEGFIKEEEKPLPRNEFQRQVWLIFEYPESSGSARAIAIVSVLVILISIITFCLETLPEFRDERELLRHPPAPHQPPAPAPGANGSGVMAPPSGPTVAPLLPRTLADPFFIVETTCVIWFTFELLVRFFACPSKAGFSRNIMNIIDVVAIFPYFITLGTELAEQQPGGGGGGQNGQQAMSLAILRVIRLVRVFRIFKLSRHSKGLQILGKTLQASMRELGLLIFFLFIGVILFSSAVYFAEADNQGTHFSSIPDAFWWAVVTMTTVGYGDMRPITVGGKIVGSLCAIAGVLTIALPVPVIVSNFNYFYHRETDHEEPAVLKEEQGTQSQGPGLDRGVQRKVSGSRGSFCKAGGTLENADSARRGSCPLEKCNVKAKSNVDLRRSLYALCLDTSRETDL
row,Compound,KV1_5% Inh L929 @0.3 μM
1,"CC(Nc1nnc(-c2cncc(S(N)(=O)=O)c2)c2cccc(-c3ccccc3)c12)c1ccccn1 (centres unmarked) [Example 34, 5-(5-Phenyl-4-((1-(pyridin-2-yl)ethyl)amino)phthalazin-1-yl)pyridine-3-sulfonamide]",84%

# Same assay, conditions: L929, 0.3 μM; patch clamped mammalian L-929 cells stably expressing human Kv1.5 (IKur); read-out: KV1_5% Inh L929 @0.3 μM
row,Compound,inhibition at 0.3 µM
1,"OCC(O)c1cncc(-c2nnc(NCc3ccccn3)c3c(-c4ccccc4)cccc23)c1 (racemic) [Example 7, 1-(5-(5-Phenyl-4-(pyridin-2-ylmethylamino)phthalazin-1-yl)pyridin-3-yl)ethane-1,2-diol]",16%
2,"CC(=O)Nc1cncc(-c2nnc(NCc3ccccc3)c3c(-c4ccccc4)cccc23)c1 [Example 2, N-(5-(4-(Benzylamino)-5-phenylphthalazin-1-yl)pyridin-3-yl)acetamide]",83.9%
3,CC(C)OC(=O)Nc1cncc(-c2nnc(NCc3ccccc3)c3c(-c4ccccc4)cccc23)c1 [Example 4],95.4%
4,"O=C(NCC(O)CO)c1cncc(-c2nnc(NCc3ccccn3)c3c(-c4ccccc4)cccc23)c1 (centres unmarked) [Example 6, N-(2,3-Dihydroxypropyl)-5-(5-phenyl-4-(pyridin-2-ylmethylamino)phthalazin-1-yl)nicotinamide]",38.3%
5,"NC(=O)Nc1cncc(-c2nnc(NCc3ccccc3)c3c(-c4ccccc4)cccc23)c1 [Example 10, 1-(5-(4-(Benzylamino)-5-phenylphthalazin-1-yl)pyridin-3-yl)urea]",51.1%
6,"CC(=O)Nc1cncc(-c2nnc(NCc3ccccn3)c3c(-c4ccccc4)cccc23)c1 [Example 11, N-(5-(5-Phenyl-4-(pyridin-2-ylmethylamino)phthalazin-1-yl)pyridin-3-yl)acetamide]",78.8%
7,"CC(C)OC(=O)Nc1cncc(-c2nnc(NCc3ccccn3)c3c(-c4ccccc4)cccc23)c1 [Example 12, Isopropyl 5-(5-phenyl-4-(pyridin-2-ylmethylamino)phthalazin-1-yl)pyridin-3-ylcarbamate]",91.6%
8,"CC(C)(C)Oc1cc(-c2nnc(NCc3ccccc3)c3c(-c4ccccc4)cccc23)ccn1 [Example 13, N-Benzyl-4-(2-tert-butoxypyridin-4-yl)-8-phenylphthalazin-1-amine]",43%
9,"COc1ccccc1CNc1nnc(-c2cncc(S(N)(=O)=O)c2)c2cccc(-c3ccccc3)c12 [Example 19, 5-(4-((2-Methoxy-benzyl)amino)-5-phenylphthalazin-1-yl)pyridine-3-sulfonamide]",72.5%
10,"Nc1ccc(-c2nnc(NCc3ccccc3)c3c(-c4ccccc4)cccc23)cn1 [Example 20, 4-(6-Aminopyridin-3-yl)-N-benzyl-8-phenylphthalazin-1-amine]",92.8%
11,"CC(C)CC(=O)Nc1cncc(-c2nnc(NCc3ccccc3)c3c(-c4ccccc4)cccc23)c1 [Example 22, N-(5-(4-(Benzyl-amino)-5-phenylphthalazin-1-yl)pyridin-3-yl)-3-methylbutanamide]",91.5%
12,"CCOC(=O)c1cncc(-c2nnc(NCc3ccccc3)c3c(-c4ccccc4)cccc23)c1 [Example 24, Ethyl 5-(4-(benzyl-amino)-5-phenylphthalazin-1-yl) nicotinate]",96.5%
13,"NS(=O)(=O)c1cncc(-c2nnc(NCc3ccccc3)c3c(-c4ccc(F)cc4)cccc23)c1 [Example 28, 5-(4-(Benzylamino)-5-(4-fluorophenyl)phthalazin-1-yl)pyridine-3-sulfonamide]",41.5%
14,"CC(C)CC(=O)Nc1cncc(-c2nnc(NCc3ccccn3)c3c(-c4ccccc4)cccc23)c1 [Example 30, 3-Methyl-N-(5-(5-phenyl-4-((pyridin-2-ylmethyl)amino)phthalazin-1-yl)pyridin-3-yl)butanamide]",92.5%
15,"NS(=O)(=O)c1cncc(-c2nnc(NCc3ccccc3F)c3c(-c4ccccc4)cccc23)c1 [Example 31, 5-(4-((2-Fluorobenzyl)amino)-5-phenylphthalazin-1-yl)pyridine-3-sulfonamide]",87.4%
16,"CC(Nc1nnc(-c2cncc(S(N)(=O)=O)c2)c2cccc(-c3ccccc3)c12)c1ccccn1 (centres unmarked) [Example 33, 5-(5-Phenyl-4-((1-(pyridin-2-yl)ethyl)amino)phthalazin-1-yl)pyridine-3-sulfonamide]",71.1%
17,"CC(C)(Nc1nnc(-c2cncc(S(N)(=O)=O)c2)c2cccc(-c3ccccc3)c12)c1ccccn1 [Example 35, 5-(5-Phenyl-4-((2-(pyridin-2-yl)propan-2-yl)amino)phthalazin-1-yl)pyridine-3-sulfonamide]",86.3%
18,"NS(=O)(=O)c1cncc(-c2nnc(NCc3c(F)cccc3F)c3c(-c4ccccc4)cccc23)c1 [Example 36, 5-(4-((2,6-Difluorobenzyl)amino)-5-phenylphthalazin-1-yl)pyridine-3-sulfonamide]",91.1%
19,"NS(=O)(=O)c1cncc(-c2nnc(NCc3ncccc3F)c3c(-c4ccccc4)cccc23)c1 [Example 37, 5-(4-((3-Fluoropyridin-2-yl)methylamino)-5-phenylphthalazin-1-yl)pyridine-3-sulfonamide]",78.6%
20,"NS(=O)(=O)c1cncc(-c2nnc(NCc3cccc(C(F)(F)F)c3)c3c(-c4ccccc4)cccc23)c1 [Example 38, 5-(5-Phenyl-4-((3-(trifluoromethyl)benzyl)amino)phthalazin-1-yl) pyridine-3-sulfonamide]",94.9%
21,"NS(=O)(=O)c1cncc(-c2nnc(NCc3cc(Cl)cc(Cl)c3)c3c(-c4ccccc4)cccc23)c1 [Example 39, 5-(4-((3,5-Dichlorobenzyl)amino)-5-phenylphthalazin-1-yl)pyridine-3-sulfonamide]",78.4%
22,"NS(=O)(=O)c1cncc(-c2nnc(NC[C@H](O)c3ccccc3)c3c(-c4ccccc4)cccc23)c1 [Example 41, (R)-5-(4-((2-Hydroxy-2-phenylethyl)amino)-5-phenylphthalazin-1-yl)pyridine-3-sulfonamide]",93.5%

# Second part, the compound after the results:
row,inhibition at 0.3 µM,Compound
1,79.5%,"NS(=O)(=O)c1cncc(-c2nnc(NCc3ccccn3)c3c(-c4ccccc4)cccc23)c1 [Example 1, 5-(5-Phenyl-4-(pyridin-2-ylmethylamino)phthalazin-1-yl)pyridine-3-sulfonamide]"
2,77.3%,"CS(=O)(=O)Nc1cncc(-c2nnc(NCc3ccccc3)c3c(-c4ccccc4)cccc23)c1 [Example 3, N-(5-(4-(Benzylamino)-5-phenylphthalazin-1-yl)pyridin-3-yl)methanesulfonamide]"
3,76%,"NC(=O)c1cncc(-c2nnc(NCc3ccccn3)c3c(-c4ccccc4)cccc23)c1 [Example 5, 5-(5-Phenyl-4-(pyridin-2-ylmethylamino)phthalazin-1-yl)nicotinamide]"
4,90.5%,"NS(=O)(=O)c1cncc(-c2nnc(NCc3ccccc3)c3c(-c4ccccc4)cccc23)c1 [Example 8, 5-(4-(Benzylamino)-5-phenylphthalazin-1-yl)pyridine-3-sulfonamide]"
5,87.1%,"Nc1cncc(-c2nnc(NCc3ccccn3)c3c(-c4ccccc4)cccc23)c1 [Example 9, 4-(5-Aminopyridin-3-yl)-8-phenyl-N-(pyridin-2-ylmethyl) phthalazin-1-amine]"
6,71%,"CS(=O)(=O)Nc1cccc(NC(=O)c2cncc(-c3nnc(NCc4ccccn4)c4c(-c5ccccc5)cccc34)c2)c1 [Example 14, N-(3-(Methylsulfonamido)phenyl)-5-(5-phenyl-4-(pyridin-2-ylmethylamino)phthalazin-1-yl)nicotinamide]"
7,97.9%,"CC(=O)Nc1ccc(-c2nnc(NCc3ccccc3)c3c(-c4ccccc4)cccc23)cn1 [Example 21, N-(5-(4-(Benzyl-amino)-5-phenylphthalazin-1-yl)pyridin-2-yl)acetamide]"
8,83.5%,"NC(=O)c1cncc(-c2nnc(NCc3ccccc3)c3c(-c4ccccc4)cccc23)c1 [Example 23, 5-(4-(Benzyl-amino)-5-phenylphthalazin-1-yl)nicotinamide]"
9,80.2%,"Oc1cc(-c2nnc(NCc3ccccc3)c3c(-c4ccccc4)cccc23)ccn1 [Example 25, 4-(4-(Benzyl-amino)-5-phenylphthalazin-1-yl)pyridin-2-ol]"
10,93.1%,"COc1ncc(-c2nnc(NCc3ccccc3)c3c(-c4ccccc4)cccc23)cn1 [Example 26, N-Benzyl-4-(2-methoxy-pyrimidin-5-yl)-8-phenylphthalazin-1-amine]"
11,78%,"O=C(Nc1cncc(-c2nnc(NCc3ccccc3)c3c(-c4ccccc4)cccc23)c1)OCC(F)(F)F [Example 27, 2,2,2-Trifluoroethyl (5-(4-(benzylamino)-5-phenylphthalazin-1-yl)pyridin-3-yl)carbamate]"
12,68.1%,"NS(=O)(=O)c1cncc(-c2nnc(NCc3ncccn3)c3c(-c4ccccc4)cccc23)c1 [Example 29, 5-(5-Phenyl-4-((pyrimidin-2-ylmethyl)amino)phthalazin-1-yl)pyridine-3-sulfonamide]"
13,53.2%,"NS(=O)(=O)c1cncc(-c2nnc(NCc3cccc(F)c3)c3c(-c4ccccc4)cccc23)c1 [Example 32, 5-(4-((3-Fluorobenzyl)amino)-5-phenylphthalazin-1-yl)pyridine-3-sulfonamide]"
14,90.2%,"NS(=O)(=O)c1cncc(-c2nnc(NCc3cccc(OC(F)(F)F)c3)c3c(-c4ccccc4)cccc23)c1 [Example 40, 5-(5-Phenyl-4-((3-(trifluoromethoxy)benzyl)amino)phthalazin-1-yl)pyridine-3-sulfonamide]"
15,91.2%,"C[C@@H](Nc1nnc(-c2cncc(S(N)(=O)=O)c2)c2cccc(-c3ccccc3)c12)c1ccccc1 [Example 42, (R)-5-(5-Phenyl-4-((1-phenylethyl)amino)phthalazin-1-yl)pyridine-3-sulfonamide]"
